Source: paper PMC6271220, “Synthesis, Molecular Docking and Biological Evaluation of Glycyrrhizin Analogs as Anticancer Agents Targeting EGFR” (Molecules, 2014)

Assays:
[1] = tested on: HepG2 (liver carcinoma cell line); assay: In vivo tumor xenograft model, HepG2 tumor-bearing mice; parameters: species or system Kunming mice; conditions: 60 mg/kg/day oral gavage, ten days; for Inhibition rate: from average tumor weights vs control
Experimental: (§1) Kunming mice (SPF, male or female, 20 ± 2 g) were purchased from the experimental animal center of China Pharmaceutical University. Animals were housed in a temperature (22 ± 2 °C) and relatively humidity (50%)-controlled room on a 12 h light/dark cycle, given free access to food and water, and acclimatized for at least one week prior to use. All the animal experiments were performed in accordance with the Regulations of the Experimental Animal Administration issued by the State Committee of Science and Technology of China.
(§2) Cell lines used for evaluation of the in vivo antitumor activity in this study included three tumor cell lines, namely S180 (sarcoma tumer cell line), HepG2 (liver carcinoma cell line), EAC (Ehrlich ascites carcinoma cell line). All of cell lines were purchased by the Shanghai Institutes for Biological Sciences, Chinese Academy of Sciences, and the cells were cultured in RPMI-1640 medium, which was supplemented with 10% heat-inactivated fetal bovine serum, 100 U/mL penicillin and 100 U/mL streptomycin and cultured in an atmosphere of 5% CO2 at 37 °C. Cells were collected for the experiments in the logarithmic growth phase.
(§3) To establish the tumor-bearing mouse model, the cell lines were harvested and inoculated subcutaneously into the right armpit region of the mice. On the 7th day, the tumor ascrites were obtained and washed with sterile PBS. Under sterile condition, the tumor ascrites were diluted with sterile nomal saline to 1 × 10^10 /L cell suspension. Tumor ascites were maintained in vivo in mice by transplantation of 0.2 mL of ascites (2 × 10^6 cells) from the infected mice to the non-infected mice.
(§4) Each Kunming mouse (male or female, weight 20 ± 2 g) were inoculated with seven-day-old ascrite (0.2 mL, 2 × 10^6 cells) subcutaneously into the right front armpit. 24 h after implantation of tumor cells, the mice were randomly divided into five test groups with 10 mice per group. Each mouse was weighed immediately after inoculation. The mice were treated by oral gavage with test samples (60 mg/kg/day) or normal saline (NS, 10 mL/kg) for ten days once daily. On day 11, the mice were sacrificed via cervical dislocation, and the mouse and tumor were excised and weighed for evaluating the tumor growth inhibition. The tumor inhibitory rate was calculated by the following formula: [drawing 5] (1) where Wcontrol and Wtreated were the average tumor weights of the control and treated mice, respectively. […] The effect of glycyrrhizin analogs on percentage increases in life span was calculated on the basis of mortality of the experimental mice: […]

[2] = tested on: HeLa (cervix of uterus adenocarcinoma); assay: CCK-8 anti-proliferative assay, HeLa; assay type: cell-based; conditions: Homo sapiens, CCK-8 assay, average of three independent experiments in triplicate
Experimental: (§5) CCK8 is much more convenient and helpful than MTT for analyzing cell proliferation, because it can be reduced to soluble formazan by dehydrogenase in mitochondria and has little toxicity to cells. Cell proliferation was determined using CCK8 dye (BeyotimeInst Biotech, Shanghai, China) according to manufacturer’s instructions. Briefly, 1–5 × 10^3 cells per well were seeded in a 96-well plate, grown at 37 °C for 12 h, Subsequently, cells were treated with compounds at increasing concentrations in the presence of 10% FBS for 24 or 48 h. After 10 µL CCK8 dye was added to each well, cells were incubated at 37 °C for 1–2 h and Plates were read in a Victor-V multilabel counter (Perkin-Elmer, Waltham, MA, USA) using the default europium detection protocol. Percent inhibition or IC50 values of compounds were calculated by comparison with DMSO-treated control wells.

[3] = tested on: HepG2 (hepatocellular carcinoma); assay: CCK-8 anti-proliferative assay, HepG2; assay type: cell-based; conditions: Homo sapiens, CCK-8 assay, average of three independent experiments in triplicate
Experimental: as §5

[4] = tested on: EAC (Ehrlich ascites carcinoma cell line); assay: Survival of EAC tumor-bearing mice; assay type: in vivo, Kunming mice; conditions: for Survival time: control 16.40 ± 2.07 d; for Survival rate: percentage increase in life span vs control
Experimental: as §1, §2, §3, §4

A549 (lung carcinoma) = assay: CCK-8 anti-proliferative assay, A549; assay type: cell-based; conditions: Homo sapiens, CCK-8 assay, average of three independent experiments in triplicate
Experimental: as §5

[5] = tested on: S180 (sarcoma tumer cell line); assay: In vivo tumor xenograft model, S180 tumor-bearing mice; parameters: species or system Kunming mice; conditions: 60 mg/kg/day oral gavage, ten days; for Inhibition rate: from average tumor weights vs control
Experimental: as §1, §2, §3, §4

EGFR = target: T1, EGFR (Homo sapiens, UniProt P00533); assay: EGFR kinase autophosphorylation assay (DELFIA/time-resolved fluorometry); assay type: biochemical; conditions: in vitro EGFR enzyme inhibition
T1 construct: EGFR cytoplasmic domain (EGFR-CD, amino acids 645–1186); (His)6 (N); made in house; host or cells: Sf-9 insect cells (baculovirus)
T1 sequence (P00533 669-1210): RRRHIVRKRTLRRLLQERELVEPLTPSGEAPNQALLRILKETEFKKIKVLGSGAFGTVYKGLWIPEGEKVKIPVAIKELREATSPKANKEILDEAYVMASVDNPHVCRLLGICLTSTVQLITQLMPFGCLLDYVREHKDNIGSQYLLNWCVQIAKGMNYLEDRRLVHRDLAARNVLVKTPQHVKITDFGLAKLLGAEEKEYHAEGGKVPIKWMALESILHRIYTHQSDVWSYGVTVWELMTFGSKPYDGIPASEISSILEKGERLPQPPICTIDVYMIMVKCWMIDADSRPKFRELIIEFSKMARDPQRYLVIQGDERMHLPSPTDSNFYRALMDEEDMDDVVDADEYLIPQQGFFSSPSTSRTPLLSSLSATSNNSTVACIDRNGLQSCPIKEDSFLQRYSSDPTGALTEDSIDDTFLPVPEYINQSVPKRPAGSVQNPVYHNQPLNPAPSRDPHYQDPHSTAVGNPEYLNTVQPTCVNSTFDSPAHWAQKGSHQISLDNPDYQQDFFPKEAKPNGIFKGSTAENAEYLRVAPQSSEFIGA
Experimental: A sequence that encodes (His)6 was located at the 5′ upstream to the EGFR sequences. Sf-9 cells were infected for 3 days for protein expression. Sf-9 cell pellets were solubilized at 0 °C in a buffer at pH 7.4 containing 50 mM HEPES, 10 mM NaCl, 1% Triton, 10 µM ammonium molybdate, 100 µM sodium vanadate, 10 µg/mL aprotinin, 10 µg/mL leupeptin, 10 µg/mL pepstatin, and 16 µg/mL benzamidine HCl for 20 min followed by 20 min centrifugation. Crude extract supernatant was passed through an equilibrated Ni-NTA superflow packed column and washed with 10 mM and then 100 mM imidazole to remove nonspecifically bound material. Histidine tagged proteins were eluted with 250 and 500 mM imidazole and dialyzed against 50 mM NaCl, 20 mM HEPES, 10% glycerol, and 1 µg/mL each of aprotinin, leupeptin and pepstatin for 2 h. The entire purification procedure was performed at 4 °C or on ice.
EGFR kinase assays were set up to assess the level of autophosphorylation based on DELFIA/Time-Resolved Fluorometry. All compounds were dissolved in 100% DMSO and diluted to the appropriate concentrations with 25 mM HEPES at pH 7.4. In each well, 10 µL compound was incubated with 10 µL (5 ng for EGFR) recombinant enzyme (1:80 dilution in 100 mM HEPES) for 10 min at room temperature. Then, 10 µL of 5 mM buffer (containing 20 mM HEPES, 2 mM MnCl2, 100 µM Na3VO4 and 1 mM DTT) and 20 µL of 0.1 mM ATP–50 mM MgCl2 were added for 1 h. Positive and negative controls were included in each plate by incubation of enzyme with or without ATP–MgCl2. At the end of incubation, liquid was aspirated, and plates were washed three times with wash buffer. A 75 µL (400 ng) sample of europium labeled anti-phosphotyrosine antibody was added to each well for another 1 h of incubation. After washing, enhancement solution was added and the signal was detected by Victor (Wallac Inc., Gaithersburg, MD, USA) with excitation at 340 nm and emission at 615 nm. The percentage of auto-phosphorylation inhibition by the compounds was calculated using the following formula: 100% − [(negative control)/(positive control − negative control)]. The IC50 was obtained from curves of percentage inhibition with eight concentrations of compound.

Row | Structure (SMILES) | Body weight End [1] [g] | Tumor weight [1] [g] | Inhibition rate [1] [%] | IC50 [2] [µM] | IC50 [3] [µM] | Survival time [4] [days] | Survival rate [4] [%] | IC50 (A549 (lung carcinoma)) [µM] | Body weight End [5] [g] | Tumor weight [5] [g] | Inhibition rate [5] [%] | IC50 (EGFR) [µM]
1 | CC1(C(=O)O)CCC2(C)CCC3(C)C(=CC(=O)C4C5(C)CCC(OC6OC(C(=O)O)C(O)C(O)C6OC6OC(C(=O)O)C(O)C(O)C6O)C(C)(C)C5CCC43C)C2C1 (stereo not drawn) [18α-GA, 18α-Glycyrrhizin] | 26.08 ± 1.26 | 1.22 ± 0.46 | 37.4 | 15.1 | 54.2 | 19.75 ± 3.08 | 20.4 | 41.6 | 25.20 ± 1.11 | 1.29 ± 0.47 | 32.5 | 0.081
2 | CC1(C)[C@@H](O[C@@H]2O[C@H](C(=O)O)[C@@H](O)[C@H](O)[C@H]2O)CC[C@]2(C)[C@H]3C(=O)C=C4[C@H]5C[C@@](C)(C(=O)O)CC[C@]5(C)CC[C@@]4(C)[C@]3(C)CC[C@@H]12 [18α-GAMG] | 27.02 ± 2.10 | 0.98 ± 0.43 | 49.7 | 7.43 | 6.67 | 23.85 ± 5.41 | 45.4 | 15.8 | 25.25 ± 1.80 | 1.15 ± 0.50 | 39.8 | 0.028
3 | CC1(C)[C@@H](O[C@H]2O[C@H](C(=O)O)[C@@H](O)[C@H](O)[C@H]2O[C@@H]2O[C@H](C(=O)O)[C@@H](O)[C@H](O)[C@H]2O)CC[C@]2(C)[C@H]3C(=O)C=C4[C@@H]5C[C@@](C)(C(=O)O)CC[C@]5(C)CC[C@@]4(C)[C@]3(C)CC[C@@H]12 [18β-GA, Glycyrrhizin] | 26.94 ± 2.05 | 1.26 ± 0.65 | 35.4 | 18.9 | 63.6 | 19.40 ± 3.77 | 18.3 | 51.9 | 24.48 ± 2.37 | 1.33 ± 0.67 | 30.4 | 0.092
4 | CC1(C)[C@@H](O[C@@H]2O[C@H](C(=O)O)[C@@H](O)[C@H](O)[C@H]2O)CC[C@]2(C)[C@H]3C(=O)C=C4[C@@H]5C[C@@](C)(C(=O)O)CC[C@]5(C)CC[C@@]4(C)[C@]3(C)CC[C@@H]12 [18β-GAMG, glycyrrhetic acid 3-O-mono-β-D-glucuronide] | 27.8 ± 1.57 | 1.20 ± 0.35 | 38.4 | 8.39 | 33.6 | 21.05 ± 4.65 | 28.4 | 21.6 | 25.02 ± 2.58 | 1.25 ± 0.19 | 34.6 | 0.069
5 | C#Cc1cccc(Nc2ncnc3cc(OCCOC)c(OCCOC)cc23)c1 [Erlotinib, reference compound] | – | – | – | 0.2 | 0.12 | – | – | 0.13 | – | – | – | –
